# Laboratory results from ChEMBL document CHEMBL1159270, “Bruceosides D, E, and F, three new cytotoxic quassinoid glucosides from Brucea javanica” (1995).
# Legend:
# Type in all cases: functional
# [1] = system: Malme-3M; assay: Growth inhibition of human MALME-3M cells
# [2] = system: UO-31; assay: Growth inhibition of human UO31 cells
# [3] = system: EKVX; assay: Growth inhibition of human EKVX cells
# [4] = system: SK-OV-3; assay: Growth inhibition of human SKOV3 cells
# [5] = system: SF-268; assay: Growth inhibition of human SF268 cells
# [6] = system: SK-MEL-28; assay: Growth inhibition of human SK-MEL-28 cells
# [7] = system: MCF7; assay: Growth inhibition of human MCF7 cells
# [8] = system: RXF 393; assay: Growth inhibition of human RXF393 cells
# [9] = system: MDA-N; assay: Growth inhibition of human MDA-N cells
# [10] = system: CCRF-CEM; assay: Growth inhibition of human CCRF-CEM cells
# [11] = system: SR; assay: Growth inhibition of human SR cells
# [12] = system: COLO 205; assay: Growth inhibition of human COLO205 cells
# [13] = system: HCT-15; assay: Growth inhibition of human HCT15 cells
# [14] = system: A498; assay: Growth inhibition of human A498 cells
# [15] = system: MOLT-4; assay: Growth inhibition of human MOLT4 cells
# [16] = system: HOP-92; assay: Growth inhibition of human HOP92 cells
# [17] = system: NCI-H23; assay: Growth inhibition of human NCI-H23 cells
# [18] = system: NCI-H522; assay: Growth inhibition of human NCI-H522 cells
# [19] = system: UACC-257; assay: Growth inhibition of human UACC257 cells
# [20] = system: OVCAR-4; assay: Growth inhibition of human OVCAR4 cells
# [21] = system: T47D; assay: Growth inhibition of human T47D cells
# [22] = system: MDA-MB-435; assay: Growth inhibition of human MDA-MB-435 cells
# [23] = system: U-251; assay: Growth inhibition of human U251 cells
# [24] = system: HOP-62; assay: Growth inhibition of human HOP62 cells
# [25] = system: SN12C; assay: Growth inhibition of human SN12C cells
# [26] = system: NCI-H460; assay: Growth inhibition of human NCI-H460 cells
# [27] = system: UACC-62; assay: Growth inhibition of human UACC62 cells
# [28] = system: HCT-116; assay: Growth inhibition of human HCT116 cells
# [29] = system: SNB-19; assay: Growth inhibition of human SNB19 cells
# [30] = system: HT-29; assay: Growth inhibition of human HT-29 cells
# [31] = system: MDA-MB-231; assay: Growth inhibition of human MDA-MB-231 cells
# [32] = system: NCI-H226; assay: Growth inhibition of human NCI-H226 cells
# [33] = system: SNB-75; assay: Growth inhibition of human SNB75 cells
# [34] = Growth inhibition of human Hs 578T cells
# [35] = system: K562; assay: Growth inhibition of human K562 cells
# [36] = system: OVCAR-5; assay: Growth inhibition of human OVCAR5 cells
# [37] = system: IGROV-1; assay: Growth inhibition of human IGROV1 cells
# [38] = system: NCI-H322M; assay: Growth inhibition of human NCI-H322M cells
# [39] = system: BT-549; assay: Growth inhibition of human BT549 cells
# [40] = system: LOX IMVI; assay: Growth inhibition of human LOXIMVI cells
# [41] = system: A549; assay: Growth inhibition of human A549 cells
# [42] = system: SW-620; assay: Growth inhibition of human SW620 cells
# [43] = system: SK-MEL-2; assay: Growth inhibition of human SK-MEL-2 cells
# [44] = Growth inhibition of human MCF7/ADR cells; conditions: NCI/ADR-RES
# [45] = system: OVCAR-3; assay: Growth inhibition of human OVCAR-3 cells
# [46] = system: HL-60(TB); assay: Growth inhibition of human HL-60(TB) cells
# [47] = system: CAKI-1; assay: Growth inhibition of human Caki1 cells
# [48] = system: TK-10; assay: Growth inhibition of human TK10 cells
# [49] = system: PC-3; assay: Growth inhibition of human PC3 cells
# [50] = system: M14; assay: Growth inhibition of human M14 cells
# [51] = system: ACHN; assay: Growth inhibition of human ACHN cells
# [52] = system: DU-145; assay: Growth inhibition of human DU145 cells
# [53] = system: KM12; assay: Growth inhibition of human KM12 cells
# [54] = system: HCC 2998; assay: Growth inhibition of human HCC2998 cells
# [55] = system: 786-0; assay: Growth inhibition of human 786-0 cells
# [56] = system: SK-MEL-5; assay: Growth inhibition of human SK-MEL-5 cells
# [57] = system: OVCAR-8; assay: Growth inhibition of human OVCAR8 cells
# [58] = system: SF-539; assay: Growth inhibition of human SF539 cells
smiles,measurement,setting,value
CC(C)=CC(=O)O[C@H]1C(=O)O[C@@H]2C[C@H]3[C@H](C)C(=O)C(O[C@@H]4O[C@H](CO)[C@@H](O)[C@H](O)[C@H]4O)=C[C@]3(C)[C@H]3[C@@H](O)[C@H](O)[C@]4(C(=O)O)OC[C@]32[C@@H]14 [BRUCEOSIDE D],GI50,[1],24 µM
same,GI50,[2],31.6 µM
same,GI50,[3],> 100 µM
same,GI50,[4],> 100 µM
same,GI50,[5],> 100 µM
same,GI50,[6],37.2 µM
same,GI50,[7],22.4 µM
same,GI50,[8],25.1 µM
same,GI50,[9],> 100 µM
same,GI50,[10],36.3 µM
same,GI50,[11],30.9 µM
same,GI50,[12],> 100 µM
same,GI50,[13],> 100 µM
same,GI50,[14],> 100 µM
same,GI50,[15],22.4 µM
same,GI50,[16],31.6 µM
same,GI50,[17],> 100 µM
same,GI50,[18],28.8 µM
same,GI50,[19],> 100 µM
same,GI50,[20],25.1 µM
same,GI50,[21],> 100 µM
same,GI50,[22],> 100 µM
same,GI50,[23],39.8 µM
same,GI50,[24],33.1 µM
same,GI50,[25],> 100 µM
same,GI50,[26],32.4 µM
same,GI50,[27],> 100 µM
same,GI50,[28],29.5 µM
same,GI50,[29],31.6 µM
same,GI50,[30],35.5 µM
same,GI50,[31],> 100 µM
same,GI50,[32],28.2 µM
same,GI50,[33],> 100 µM
same,GI50,[34],> 100 µM
same,GI50,[35],25.7 µM
same,GI50,[36],> 100 µM
same,GI50,[37],> 100 µM
same,GI50,[38],> 100 µM
same,GI50,[39],> 100 µM
same,GI50,[40],40.7 µM
same,GI50,[41],55 µM
same,GI50,[42],> 100 µM
same,GI50,[43],> 100 µM
same,GI50,[44],> 100 µM
same,GI50,[45],20.4 µM
same,GI50,[46],35.5 µM
same,GI50,[47],> 100 µM
same,GI50,[48],> 100 µM
same,GI50,[49],> 100 µM
same,GI50,[50],32.4 µM
same,GI50,[51],> 100 µM
same,GI50,[52],> 100 µM
same,GI50,[53],49 µM
same,GI50,[54],24.5 µM
same,GI50,[55],> 100 µM
same,GI50,[56],42.7 µM
same,GI50,[57],> 100 µM
same,GI50,[58],26.3 µM
CC(C)CC(=O)O[C@H]1C(=O)O[C@@H]2C[C@H]3[C@H](C)C(=O)C(O[C@@H]4O[C@H](CO)[C@@H](O)[C@H](O)[C@H]4O)=C[C@]3(C)[C@H]3[C@@H](O)[C@H](O)[C@]4(C(=O)O)OC[C@]32[C@@H]14 [BRUCEOSIDE E],GI50,[1],22.9 µM
same,GI50,[2],> 100 µM
same,GI50,[3],> 100 µM
same,GI50,[4],> 100 µM
same,GI50,[5],> 100 µM
same,GI50,[6],25.1 µM
same,GI50,[7],28.2 µM
same,GI50,[8],10.7 µM
same,GI50,[9],> 100 µM
same,GI50,[10],24.5 µM
same,GI50,[11],33.9 µM
same,GI50,[12],> 100 µM
same,GI50,[13],> 100 µM
same,GI50,[14],> 100 µM
same,GI50,[15],19.1 µM
same,GI50,[16],37.2 µM
same,GI50,[17],> 100 µM
same,GI50,[18],2.19 µM
same,GI50,[19],> 100 µM
same,GI50,[20],1.91 µM
same,GI50,[21],> 100 µM
same,GI50,[22],> 100 µM
same,GI50,[23],31.6 µM
same,GI50,[24],44.7 µM
same,GI50,[25],> 100 µM
same,GI50,[26],27.5 µM
same,GI50,[27],> 100 µM
same,GI50,[28],33.1 µM
same,GI50,[29],31.6 µM
same,GI50,[30],33.9 µM
same,GI50,[31],> 100 µM
same,GI50,[32],29.5 µM
same,GI50,[33],> 100 µM
same,GI50,[34],39.8 µM
same,GI50,[35],24 µM
same,GI50,[36],> 100 µM
same,GI50,[37],35.5 µM
same,GI50,[38],> 100 µM
same,GI50,[39],> 100 µM
same,GI50,[40],38.9 µM
same,GI50,[41],41.7 µM
same,GI50,[42],> 100 µM
same,GI50,[43],> 100 µM
same,GI50,[44],> 100 µM
same,GI50,[45],36.3 µM
same,GI50,[46],41.7 µM
same,GI50,[47],> 100 µM
same,GI50,[48],> 100 µM
same,GI50,[49],> 100 µM
same,GI50,[50],> 100 µM
same,GI50,[51],> 100 µM
same,GI50,[52],> 100 µM
same,GI50,[53],> 100 µM
same,GI50,[54],20.4 µM
same,GI50,[55],> 100 µM
same,GI50,[56],28.2 µM
same,GI50,[57],> 100 µM
same,GI50,[58],20.4 µM
CC(=O)OC(C)(C)/C(C)=C/C(=O)O[C@H]1C(=O)O[C@@H]2C[C@H]3[C@H](C)C(=O)C(O[C@@H]4O[C@H](CO)[C@@H](O)[C@H](O)[C@H]4O)=C[C@]3(C)[C@H]3[C@@H](O)[C@H](O)[C@]4(C(=O)O)OC[C@]32[C@@H]14 [BRUCEOSIDE F],GI50,[1],56.2 µM
same,GI50,[2],> 100 µM
same,GI50,[3],> 100 µM
same,GI50,[4],> 100 µM
same,GI50,[5],> 100 µM
same,GI50,[6],> 100 µM
same,GI50,[7],27.5 µM
same,GI50,[8],37.2 µM
same,GI50,[9],> 100 µM
same,GI50,[10],43.7 µM
same,GI50,[11],49 µM
same,GI50,[12],> 100 µM
same,GI50,[13],> 100 µM
same,GI50,[14],> 100 µM
same,GI50,[15],33.9 µM
same,GI50,[16],66.1 µM
same,GI50,[17],> 100 µM
same,GI50,[18],18.6 µM
same,GI50,[19],> 100 µM
same,GI50,[20],> 100 µM
same,GI50,[21],> 100 µM
same,GI50,[22],> 100 µM
same,GI50,[23],> 100 µM
same,GI50,[24],69.2 µM
same,GI50,[25],> 100 µM
same,GI50,[26],39.8 µM
same,GI50,[27],> 100 µM
same,GI50,[28],38 µM
same,GI50,[29],> 100 µM
same,GI50,[30],> 100 µM
same,GI50,[31],> 100 µM
same,GI50,[32],72.4 µM
same,GI50,[33],> 100 µM
same,GI50,[34],> 100 µM
same,GI50,[35],39.8 µM
same,GI50,[36],> 100 µM
same,GI50,[37],> 100 µM
same,GI50,[38],> 100 µM
same,GI50,[39],> 100 µM
same,GI50,[40],> 100 µM
same,GI50,[41],> 100 µM
same,GI50,[42],> 100 µM
same,GI50,[43],> 100 µM
same,GI50,[44],> 100 µM
same,GI50,[45],25.7 µM
same,GI50,[46],47.9 µM
same,GI50,[47],> 100 µM
same,GI50,[48],> 100 µM
same,GI50,[49],> 100 µM
same,GI50,[50],> 100 µM
same,GI50,[51],> 100 µM
same,GI50,[52],> 100 µM
same,GI50,[53],> 100 µM
same,GI50,[54],36.3 µM
same,GI50,[55],> 100 µM
same,GI50,[56],> 100 µM
same,GI50,[57],> 100 µM
same,GI50,[58],56.2 µM
